Experimental data taken from US10561638B2, “Methods for treating dependence” (Biotie Therapies, Inc., priority 2007, dated 2020).

Target: T1, bovine dopamine β-hydroxylase (Bos taurus, UniProt P15101)
T1 construct: Bovine DBH from adrenal glands was obtained from Sigma Chemical Co; purchased Sigma Chemicals (St Louis, Mo., USA); host or cells: bovine adrenal glands
T1 sequence (P15101 1-610): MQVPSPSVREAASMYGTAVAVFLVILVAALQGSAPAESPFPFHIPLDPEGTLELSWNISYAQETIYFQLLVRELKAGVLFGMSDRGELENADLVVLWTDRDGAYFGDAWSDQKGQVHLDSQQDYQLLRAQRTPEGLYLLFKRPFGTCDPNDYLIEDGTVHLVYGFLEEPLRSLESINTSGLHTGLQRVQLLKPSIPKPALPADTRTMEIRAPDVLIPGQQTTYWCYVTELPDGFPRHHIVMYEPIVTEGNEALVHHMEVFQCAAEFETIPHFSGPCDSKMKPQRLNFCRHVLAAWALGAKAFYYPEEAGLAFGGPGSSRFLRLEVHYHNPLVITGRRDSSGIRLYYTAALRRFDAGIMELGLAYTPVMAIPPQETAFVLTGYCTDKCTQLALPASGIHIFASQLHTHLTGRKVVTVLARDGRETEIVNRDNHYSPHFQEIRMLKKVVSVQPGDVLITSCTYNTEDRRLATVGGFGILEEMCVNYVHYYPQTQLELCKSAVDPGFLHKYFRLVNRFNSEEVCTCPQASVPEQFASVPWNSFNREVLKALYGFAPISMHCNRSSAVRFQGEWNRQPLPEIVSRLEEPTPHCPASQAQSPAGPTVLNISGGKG
Assay: DBH assay, conversion of tyramine to octopamine
Format: biochemical
Experimental: Bovine and human dopamine β-hydroxylase activity were assayed by measuring the conversion of tyramine to octopamine. Bovine adrenal dopamine β-hydroxylase was obtained from Sigma Chemicals (St Louis, Mo., USA) whereas human dopamine β-hydroxylase was purified from the culture medium of the neuroblastoma cell line SK-N-SH. The assay was performed at pH 5.2 and 32° C. in a medium containing 0.125 M NaAc, 10 mM fumarate, 0.5-2 μM CuSO4, 0.1 mg·ml^−1 catalase, 0.1 mM tyramine and 4 mM ascorbate. In a typical assay, 0.5-1 milliunits of enzyme were added to the reaction mixture and, subsequently, a substrate mixture containing catalase, tyramine and ascorbate was added to initiate the reaction (final volume of 200 μl). Samples were incubated with or without the appropriate concentration of nepicastat or Compound B at 37° C. for 30 to 40 minutes. The reaction was quenched by the stop solution containing 25 mM EDTA and 240 μM 3-hydroxytyramine (internal standard). The samples were analyzed for octopamine by reverse phase high pressure liquid chromatography (HPLC) using ultraviolet-detection at […]. The HPLC chromatography run was carried out at the flow rate of 1 ml·min^−1 using a LiChroCART 125-4 RP-18 column and isocratic elution with 10 mM acidic acid, 10 mM 1-heptane sulfonic acid, 12 mM tetrabutyl ammonium phosphate and 10% methanol. The remaining percent activity was calculated based on controls, corrected using internal standards and fitted to a non-linear four-parameter concentration-response curve.
DBH activity was assayed by measuring the conversion of tyramine to octopamine. […] The samples were analyzed for octopamine by reverse phase HPLC using UV detection at […]. The remaining percent activity was calculated based on controls (without inhibitor), corrected using internal standards and fitted to a non-linear 4-parameter concentration-response curve to obtain IC50 values.
An HPLC assay was used to measure DBH activity using tyramine and ascorbate as substrates. […] The samples (150 μl) were loaded to a Gilson autosampler and analyzed by HPLC using UV detection at 280 nm. […]

| SMILES | IC50 (0.1 mM tyramine, 4 mM ascorbate, pH 5.2) | potency of nepicastat relative to Compound B (bovine DBH) | potency of nepicastat relative to SKF-102698 (bovine enzyme) |
| --- | --- | --- | --- |
| Fc1cc(F)cc(Cn2cc[nH]c2=S)c1 [SKF-102698, reference compound] | 67 ± 4.2 nM | – | – |
| Cl.NCc1c[nH]c(=S)n1[C@H]1CCc2c(F)cc(F)cc2C1 [nepicastat, (S)-5-Aminomethyl-1-(5,7-difluoro-1,2,3,4-tetrahydronaphth-2-yl)-2,3-dihydro-2-thioxo-1H-imidazole hydrochloride] | – | 3 fold | 8 fold |
